The subject of series [1] is PCV2. Description: PCV2 infection inhibition in PK15 cells (qPCR). In kind it is cell-based, Porcine Circovirus Type 2. As to conditions: for SI (selectivity index), PCV2: CC50/IC50; for IC50: Porcine circovirus 2, PK-15, 96 h, PK15 cells, 200 TCID50/well PCV2, after 4 days, read-out: PCV2 infection inhibition concentration IC50. Here is the method:
For the isolated DNA, using PCV2-specific primers (F-[…] , R-[…] ) and realtime RT-qPCR experimental method (95° C., 30 seconds 1 cycle, 95° C., 20 seconds, 56° C., 60 seconds 40 cycles), the antiviral efficacy of the materials was verified.
For orientation: Quantitative PCR measures a nucleic acid by following its amplification.

The subject of series [2] is Swine Influenza virus (SIV). Description: organism not typed. The format is cell-based. As to conditions: for SI (selectivity index), SIV: CC50/IC50; for IC50: MDCK, 96 h, read-out: SIV infection inhibition concentration IC50.
Series [3] in a line: in vitro. The settings on record: monkey.
The test system of series [4] is Vero cell line. The settings on record: monkey.
In series [5] the test system is PRRSV (NA type, VR-2332 strain). Description: PRRSV infection inhibition in Marc-145 cells (immunofluorescence staining). The format is cell-based, Porcine Reproductive and Respiratory Syndrome virus. As to conditions: for SI (selectivity index), PRRSV: CC50/IC50; for IC50: Porcine reproductive and respiratory syndrome virus, MARC145, 72 h, Marc-145 cells, 100 TCID50/ml PRRSV, three days after treatment, read-out: PRRSV infection inhibition concentration IC50.

The subject of series [6] is BRV. The series is described as follows: BRV infection inhibition in MDBK cells (RT-qPCR). As to conditions: for SI (selectivity index), BRV: CC50/IC50; for IC50: Rotavirus A, 96 h, MDBK cells, 200 TCID50/well BRV, after 4 days, read-out: BRV infection inhibition concentration IC50. The format is cell-based, Bovine Rotavirus. Here is the method: The next day, BRV of 200 TCID50/well and inosine, xanthosine and guanosine in the dialdehyde and acyclic diol forms were treated to the cells simultaneously, and after 4 days, using commercialized Viral gene (DNA/RNA) extraction kit (iNtRON, 101410754), RNA was isolated.
For the isolated RNA, using BRV-specific primers (F-[…] , R-[…] ) and realtime RT-qPCR experimental method (95° C., 10 minutes 1 cycle, 95° C., 15 seconds, 60° C., 15 seconds, 72° C., 20 seconds 40 cycles), the antiviral efficacy of the materials was confirmed.

Series [7] in a line: Cytotoxicity, MDBK cell tests. As to conditions: bovine, MDBK cells.
Series [8] concerns IBV. Description: microbe, parasite or virus in culture. In kind it is cell-based, Avian Infectious Bronchitis virus. The settings on record: for IC50: read-out: IBV infection inhibition concentration IC50; for SI (selectivity index), IBV: CC50/IC50.
The test system of series [9] is CPV. Description: CPV infection inhibition in MDCK cells (qPCR). In kind it is cell-based, Canine Parvovirus. The settings on record: for SI (selectivity index), CPV: CC50/IC50; for IC50: 96 h, MDCK cells, 200 TCID50/well CPV, after 4 days, read-out: CPV infection inhibition concentration IC50 (Table 10). Here is the method:
For the isolated DNA, using CPV-specific primers (F-[…] , R-[…] ) and realtime RT-qPCR experimental method (95° C., 5 minutes 1 cycle, 95° C., 10 seconds, 60° C., 30 seconds, 40 cycles), the antiviral efficacy of the materials was confirmed.

Series [10] deals with PEDV (G1a type, SM98 strain). The series is described as follows: PEDV infection inhibition in Vero cells (PEDV detection kit on isolated RNA). In kind it is cell-based, Porcine Epidemic Diarrhea virus. As to conditions: for SI (selectivity index), PEDV: CC50/IC50; for IC50: Porcine epidemic diarrhea virus, 48 h, Vero cells, 200 TCID50/ml PEDV, after 2 days, read-out: PEDV infection inhibition concentration IC50. Here is the method: The next day, PEDV (G1a type, SM98 strain) of 200 TCID50/ml and inosine, xanthosine and guanosine in the dialdehyde and acyclic diol forms were treated to the cells simultaneously, and after 2 days, using commercialized Viral gene (DNA/RNA) extraction kit (iNtRON, 101410754), RNA was isolated. For the isolated RNA, using commercialized PEDV detection kit (Mediandiagnostics, NS-PED-31), the antiviral efficacy of the materials was verified.

The nature of series [11]: Cytotoxicity, PK15 cell test. The settings on record: pig, PK15 cells.
Series [12] concerns NDV. Description: microbe, parasite or virus in culture. In kind it is cell-based, Avian Newcastle Disease virus. As to conditions: for SI (selectivity index), NDV: CC50/IC50; for IC50: read-out: NDV infection inhibition concentration IC50.
Series [13] relates to PRV. The series is described as follows: microbe, parasite or virus in culture. In kind it is cell-based, Porcine Rotavirus. The settings on record: for SI (selectivity index), PRV: CC50/IC50; for IC50: Rotavirus C, Vero, 72 h, read-out: PRV infection inhibition concentration IC50.
The nature of series [14]: Cytotoxicity (WST-1 / DAPI staining), PRRSV test cells. As to conditions: monkey, Marc-145 cells (monkey kidney).
Series [15] in a line: Cytotoxicity, MDCK cell tests. As to conditions: dog, MDCK cells.
In series [16] the test system is MDBK cell line. Description: Cytotoxicity, MDBK cell tests. The settings on record: read-out: CC50 (Table 9, BRV); cytotoxicity.
The test system of series [17] is BVDV. Description: BVDV infection inhibition in MDBK cells (RT-qPCR). The format is cell-based, Bovine Viral Diarrhea virus. As to the method:
The next day, BVDV of 200 TCID50/well and inosine, xanthosine and guanosine in the dialdehyde and acyclic diol forms were treated to the cells simultaneously, and after 4 days, using commercialized Viral gene (DNA/RNA) extraction kit (iNtRON, 101410754), RNA was isolated.
For the isolated RNA, using BVDV-specific primers (F-[…] , R-[…] ) and realtime RT-qPCR experimental method (94° C., 10 minutes 1 cycle, 94° C., 10 seconds, 53° C., 20 seconds, 72° C., 30 seconds 35 cycles), the antiviral efficacy of the materials was verified.

The subject of series [18] is MDCK cell line. The series is described as follows: Cytotoxicity, MDCK cell tests. As to conditions: read-out: CC50 (Table 10, CPV); cytotoxicity.
Setting [19] is: avian paramyxovirus 1, Vero, 72 h.

Like-named read-outs stand apart in the source and are kept apart here.

A word on the inhibition: it is the percentage by which the read-out fell short of the control.

For the compound `Nc1nc2c(ncn2[C@@H](CO)OC(CO)CO)c(=O)[nH]1` [Acyclic diol-guanosine, acyclic diol form of guanosine], the “SI (selectivity index), PCV2” value in [1] is recorded as >4.3. For the same compound, the IC50 is 2330 µM in [1]; 4820 µM in [2]; 458 µM in series [5]; 1760 µM in series [6]; 1780 µM in series [8] (Avian coronavirus, Vero, 96 h); 1780 µM in series [10]. For the same compound, the IC50 in series [12] (setting [19]) came to 6710 µM; in series [13] it was 3400 µM. Further, the “SI (selectivity index), SIV” value in series [2] was >2.1. Besides, the CC50 was > 10000 µM in series [3]; > 10000 µM in series [4]; > 10000 µM in [7]; > 10000 µM in series [11]; > 8000 µM in series [14]; > 10000 µM in series [15]. The “SI (selectivity index), PRRSV” value in [5] is given as >17.5. Further, in series [6], the “SI (selectivity index), BRV” value is reported as >5.7. In [8], the “SI (selectivity index), IBV” value is >5.6. Moreover, the inhibition at 8000 µM in [9] (Canine parvovirus, MDCK, at 8000 μM, read-out: CPV infection inhibition efficacy) was 18%. Further, in series [9] (at 8000 μM), the “CPV virus titer reduction efficacy” value is on record as ≥ 1 log10. For the same compound, the “SI (selectivity index), PEDV” value in [10] is on record as >5.6. Further, the “SI (selectivity index), NDV” value in series [12] is on record as >1.5. Further, the “SI (selectivity index), PRV” value in series [13] was >2.9.

Turning to `O=C[C@@H](CO)O[C@H](C=O)n1cnc2c(=O)[nH]cnc21` [Dialdehyde-inosine, dialdehyde form of inosine], the “SI (selectivity index), PCV2” value in series [1] is >12.2. The IC50 in [1] was found to be 817 µM; in [2] it was 554 µM; in [5], 95 µM; in series [6], 107 µM; in series [8] (Avian coronavirus, Vero, 96 h), 76.4 µM; in series [17] (Bovine viral diarrhea virus isolates and strains, 96 h, MDBK cells, 200 TCID50/well BVDV, after 4 days, read-out: BVDV infection inhibition concentration IC50) it was 110 µM. Further, the IC50 in series [9] (Canine parvovirus) amounted to 1690 µM; in [10], 448 µM; in series [12] (setting [19]) it was 469 µM; in series [13] it was 96.6 µM. Besides, the “SI (selectivity index), SIV” value in [2] is >18.1. Also, the CC50 in series [3], in series [4], in series [7], in [16], in series [11] and in [14] was > 10000 µM in each case. Further, the CC50 in series [15] and in [18] was > 10000 µM in each case. In series [5], the “SI (selectivity index), PRRSV” value was >105.3. Besides, the “SI (selectivity index), BRV” value in [6] is >93.8. The “SI (selectivity index), IBV” value in [8] is given as >130. For the same compound, the “SI (selectivity index), BVDV” value in series [17] (CC50/IC50) was >90.8. Besides, the “SI (selectivity index), CPV” value in series [9] is on record as >5.9. For the same compound, in series [10], the “SI (selectivity index), PEDV” value was >22.3. Also, the “SI (selectivity index), NDV” value in series [12] is listed as >21.3. The “SI (selectivity index), PRV” value in series [13] is >103.5.

“dialdehyde form of inosine [Dialdehyde-inosine]”: the IC50 in [8] (Vero cells, 200 TCID50/well IBV, after 4 days) came to 76.4 µM; in series [12] (Vero cells, 200 TCID50/well NDV, after 3 days) it was 469 µM.

On to `O=c1[nH]c(=O)c2ncn([C@@H](CO)OC(CO)CO)c2[nH]1` [Acyclic diol-xanthosine, acyclic diol form of xanthosine], for which the “SI (selectivity index), PCV2” value in series [1] is reported as >10.1. In addition, the IC50 turned out to be 995 µM in [1]; 6690 µM in series [2]; 400 µM in series [5]; 1560 µM in [6]; 2200 µM in series [9] (Canine parvovirus); 2300 µM in series [10]. Besides, the IC50 in [13] is 3420 µM. For the same compound, in series [2], the “SI (selectivity index), SIV” value is listed as >1.5. For the same compound, the CC50 was > 10000 µM in series [3]; > 10000 µM in series [4]; > 10000 µM in [7]; > 10000 µM in series [11]; > 8000 µM in series [14]; > 10000 µM in series [15]. Moreover, the CC50 in series [18] was > 10000 µM. In series [5], the “SI (selectivity index), PRRSV” value was >20. Moreover, the “SI (selectivity index), BRV” value in [6] is >6.4. The “SI (selectivity index), CPV” value in series [9] is given as >4.6. In addition, the “SI (selectivity index), PEDV” value in series [10] was >4.4. Moreover, in [12] (avian paramyxovirus 1, Vero, read-out: NDV infection inhibition efficacy), the inhibition at 8000 µM is 39.4%. In series [13], the “SI (selectivity index), PRV” value is recorded as >2.9.

In the case of `O=c1[nH]cnc2c1ncn2[C@@H](CO)OC(CO)CO` [Acyclic diol-inosine, acyclic diol form of inosine], the “SI (selectivity index), PCV2” value in series [1] is reported as >12.9. For the same compound, the IC50 in [1] amounted to 776 µM; in [2], 6190 µM; in [5], 454 µM; in [6] it was 1930 µM; in series [8] (Avian coronavirus, Vero, 96 h), 2660 µM; in [9] (Canine parvovirus), 2190 µM. Moreover, the IC50 in [10] came out at 2770 µM; in series [12] (setting [19]), 4440 µM; in [13] it was 2830 µM. In addition, in series [2], the “SI (selectivity index), SIV” value is on record as >1.6. Also, the CC50 was > 10000 µM in series [3]; > 10000 µM in series [4]; > 10000 µM in series [7]; > 10000 µM in [11]; > 8000 µM in [14]; > 10000 µM in [15]. For the same compound, in series [18], the CC50 is > 10000 µM. In addition, the “SI (selectivity index), PRRSV” value in series [5] was >17.6. In addition, the “SI (selectivity index), BRV” value in series [6] was >5.2. Further, the “SI (selectivity index), IBV” value in [8] is recorded as >3.8. For the same compound, the “SI (selectivity index), CPV” value in series [9] is listed as >4.6. Moreover, in [10], the “SI (selectivity index), PEDV” value is >3.6. The “SI (selectivity index), NDV” value in series [12] is >2.3. In series [13], the “SI (selectivity index), PRV” value was >3.5.

The record behind these values is patent publication US20250057849A1, “ANTIVIRAL COMPOSITION COMPRISING NUCLEOSIDE ANALOGUES DERIVED FROM NUCLEIC ACID AND PHARMACEUTICALLY ACCEPTABLE SALT THEREOF” (CJ CheilJedang Corporation, priority 2021, published 2025).
